Data from ChEMBL document CHEMBL1137733, “Studies on the interaction of caffeine with bovine hemoglobin” (Eur J Med Chem, 2009).

Molecular target: albumin (Homo sapiens, UniProt P02768)
Assay: Binding affinity to human plasma albumin by ultracentrifugation
Assay type: cell-free
Conditions: read-out: PB (converted)

Sequence of albumin (P02768 whole entry): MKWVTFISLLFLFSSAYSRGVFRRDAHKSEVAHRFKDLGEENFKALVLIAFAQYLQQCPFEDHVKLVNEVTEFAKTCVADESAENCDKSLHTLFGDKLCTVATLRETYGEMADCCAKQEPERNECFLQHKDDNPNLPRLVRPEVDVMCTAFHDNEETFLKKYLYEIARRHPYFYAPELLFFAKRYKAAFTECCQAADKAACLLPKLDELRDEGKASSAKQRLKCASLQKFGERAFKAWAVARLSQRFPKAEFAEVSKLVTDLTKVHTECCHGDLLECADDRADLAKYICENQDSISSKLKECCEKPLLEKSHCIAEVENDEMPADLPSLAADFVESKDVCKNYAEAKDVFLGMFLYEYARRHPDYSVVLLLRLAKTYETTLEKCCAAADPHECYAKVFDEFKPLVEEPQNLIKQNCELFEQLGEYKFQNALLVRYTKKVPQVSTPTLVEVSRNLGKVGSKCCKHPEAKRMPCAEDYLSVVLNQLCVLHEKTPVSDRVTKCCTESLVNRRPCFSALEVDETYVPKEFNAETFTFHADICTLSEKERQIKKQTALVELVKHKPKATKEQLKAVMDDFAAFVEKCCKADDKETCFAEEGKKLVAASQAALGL

- fraction unbound: 0.622
Compound: Cn1c(=O)c2c(ncn2C)n(C)c1=O [CAFFEINE]
